Reference: patent US20100015058A1, “RADIOLABELED BBN-RGD HETERODIMERS FOR CANCER TARGETING” (STANFORD UNIVERSITY, priority 2008, published 2010)

Tests used:
PC-3 tumor cells = assay: Cell uptake assay on PC-3 tumor cells; format: cell-based, human; conditions: PC-3 cells
Experimental: In the cell uptake experiment, PC-3 cells were seeded into 12-well plates at a density of 5×10^5 cells per well for overnight incubation. Cells were rinsed 3 times with phosphate-buffered saline (PBS), followed by the addition of ^18F-FB-RGD, ^18F-FB-BBN, or ^18F-BBN-RGD to the cultured wells in triplicate (about 2 μCi/well). […] The cell lysate was collected in measurement tubes for counting. The cell uptake was normalized in terms of added radioactivity.
The cell uptake studies were performed as we have previously described with some modifications (Chen et al., Mol Imaging Biol. (2004) […]; Cai et al., (2006) J. Nuc. Med. 47: 1172-1180, incorporated herein by reference in their entireties). Briefly, PC-3 cells were seeded into 12-well plates at a density of 5×10^5 cells per well and incubated (about 18 kBq/well) with ^68Ga-labeled tracers at 37° C. for 15, 30, 60, and 120 min. Tumor cells were then washed three times with chilled PBS and harvested by trypsinization with 0.25% trypsin/0.02% EDTA (Invitrogen). The cell suspensions were collected and measured in a y counter (Packard, Meriden, Conn.). The cell uptake was expressed as the percent added dose (% AD) after decay correction. Experiments were performed twice with triplicate wells. For efflux studies, ^68Ga-labeled tracers (about 18 kBq/well) were first incubated with PC-3 cells in 12-well plates for 1 h at 37° C. to allow internalization. Then cells were washed twice with PBS, and incubated with cell culture medium for 15, 30, and 60 min. After washing three times with PBS, cells were harvested by trypsinization with 0.25% trypsin/0.02% EDTA. The cell suspensions were collected and measured in a γ counter. Experiments were performed twice with triplicate wells. Data are expressed as percent added dose after decay correction.

T47D tumor cells = assay: Cell uptake assay on T47D tumor cells; format: cell-based, human; conditions: 120 min, 37° C., n=3
Experimental: The cells suspensions were collected and measured in a y counter (Packard, Meriden, Conn.). The cell uptake was expressed as the percent added dose (% AD) after decay correction. Experiments were performed twice with triplicate wells.

[1] = Small-animal PET of PC-3 tumor-bearing mice; conditions: mouse, in vivo, iv, total radioactivity; for tissue uptake at 1 h / tissue uptake at 0.5 h / tissue uptake at 2 h / tissue uptake at 5 min / tissue uptake at 0.25 h: male, athymic nude, 3.7 MBq; for tissue to tissue ratio at 2 h: T/NT ratio
Experimental: (a) PET scans and image analysis were performed using a micro-PET R4 rodent model scanner (Siemens Medical Solutions) as reported by Li et al., J. Nucl. Med. (2007) 48: 1162-1171 and Wu et al., J Nucl. Med. (2005) 46: 1707-1718, both of which are incorporated herein by reference in their entireties). […] Five-minute static PET images were then acquired at 0.5, 1, and 2 h after injection. The images were reconstructed by a 2-dimensional ordered-subsets expectation maximum (OSEM) algorithm. No attenuation or scatter correction was applied. […] The 5-min static PET scans were then acquired at 1 hr after injection. For each small-animal PET scan, regions of interest (ROIs) were drawn over the tumor, normal tissue, and major organs by using vendor software (ASI Pro 5.2.4.0) on decay-corrected whole-body coronal images. The average radioactivity concentration (accumulation) within a tumor or an organ was obtained from mean pixel values within the multiple ROI volume, which were converted to counts/mL/min using a conversion factor. Assuming a tissue density of 1 g/mL, the ROIs were converted to counts/g/min, and then divided by the administered activity to obtain an imaging ROI-derived percentage injected dose per gram of tissue (% ID/g).
For dynamic PET, 30-min scans (1×30 s, 4×1 min, 1×1.5 min, 4×2 min, 5×3 min; total 15 frames) were started 1 min after injection, and two 5-min static PET images were also acquired at 1 h and 2 h after injection. […] For each small-animal PET scan, regions of interest (ROIs) were drawn over the tumor, normal tissue, and major organs using vendor software ASI Pro 5.2.4.0 on decay-corrected whole-body coronal images. The maximum radioactivity concentrations (accumulation) within a tumor or an organ were obtained from mean pixel values within the multiple ROI volume, and were converted to megabecquerels per milliliter per minute using a conversion factor. These values were then divided by the administered activity to obtain (assuming a tissue density of 1 g/ml) an image ROI-derived percent injected dose per gram (% ID/g).
The images were reconstructed using a 2-dimensional ordered-subsets expectation maximum algorithm without attenuation or scatter correction.
For each small-animal PET scan, regions of interest were drawn over each tumor, over normal tissue, and over major organs using vendor software (ASI Pro, version 5.2.4.0) on decay-corrected whole-body coronal images. The maximum radioactivity concentration (accumulation) within a tumor or an organ was obtained from the mean pixel values within the multiple-region-of-interest volume, which were converted to MBq/mL/min using a conversion factor. Assuming a tissue density of 1 g/mL, the regions of interest were converted to MBq/g/min and then divided by the administered activity to obtain an imaging region-of-interest-derived percentage injected dose (% ID)/g.

[2] = Small-animal PET of MDA-MB-435 tumor-bearing mice; conditions: female, athymic nude, mouse, in vivo, iv, total radioactivity
Experimental: The MDA-MB435 tumor model was established by orthotopic injections of 5×10^6 cells into the right mammary fat pad of female athymic nude mice. […] The mice were subjected to microPET studies when the tumor volume reached 100-300 mm^3 (2-3 weeks for MDA-MB-435, and 4-5 wk for T47D).
For static PET, 5-min scans were acquired at 30 min, 1 h, and 2 h after injection. For dynamic PET, 30-min scans (1×30 s, 4×1 min, 1×1.5 min, 4×2 min, 5×3 min; total 15 frames) were started 1 min after injection, and two 5-min static PET images were also acquired at 1 h and 2 h after injection. The images were reconstructed using a two-dimensional ordered subsets expectation maximum (OSEM) algorithm and no correction was applied for attenuation or scatter. […] For each small-animal PET scan, regions of interest (ROIs) were drawn over the tumor, normal tissue, and major organs using vendor software ASI Pro 5.2.4.0 on decay-corrected whole-body coronal images. The maximum radioactivity concentrations (accumulation) within a tumor or an organ were obtained from mean pixel values within the multiple ROI volume, and were converted to megabecquerels per milliliter per minute using a conversion factor. These values were then divided by the administered activity to obtain (assuming a tissue density of 1 g/ml) an image ROI-derived percent injected dose per gram (% ID/g).
(§1) Quantification of tumor and major organ activity accumulation in the microPET scans was realized by measuring the regions of interest (ROIs) that encompassing the entire organ on the coronal images.

[3] = MicroPET of T47D tumor-bearing mice; format: in vivo; conditions: female, nude, mouse, T47D tumor, iv, total radioactivity, orthotopic model
From the text: The MDA-MB-231, MDA-MB468, BT474, BT-20, T47D, MCF-7 and MDA-MB435 human breast cancer cell lines were all obtained from the American Type Culture Collection (ATCC) and maintained under standard conditions according to ATCC. The MDA-MB435 tumor model was established by orthotopic injections of 5×10^6 cells into the right mammary fat pad of female athymic nude mice. For T47D tumor model establishment, the female nude mice were first subcutaneously implanted with 60-day release 17β-estradiol pellets (Innovative Research of America, Sarasota, Fla.) in the left neck. One day after the estradiol implantation, 1×10^7 T47D cells were orthotopically injected into the right mammary fat pad of the nude mice. The mice were subjected to microPET studies when the tumor volume reached 100-300 mm^3 (2-3 weeks for MDA-MB-435, and 4-5 wk for T47D).
as §1

[4] = 10 mg/kg, PC-3 tumor uptake with RGD blocking, 1 h, co-injected c(RGDyK) 10 mg/kg
[5] = PC-3 tumor uptake, dynamic scan
[6] = PC-3 tumor uptake, static scan after dynamic scan
[7] = PC-3 tumor uptake with BBN blocking, 1 h, co-injected Aca-BBN(7-14) 15 mg/kg
[8] = PC-3 tumor uptake with RGD+BBN blocking, 1 h, co-injected RGD 10 mg/kg and BBN 15 mg/kg

CSCC[C@H](NC(=O)[C@H](CC(C)C)NC(=O)[C@H](Cc1c[nH]cn1)NC(=O)CNC(=O)[C@@H](NC(=O)[C@H](C)NC(=O)[C@H](Cc1c[nH]c2ccccc12)NC(=O)[C@H](CCC(N)=O)NC(=O)CCCCCNC(=O)CC[C@H](NC(=S)Nc1ccc(C[C@H]2CN(CC(=O)O)CCN(CC(=O)O)CCN2CC(=O)O)cc1)C(=O)NCCCC[C@@H]1NC(=O)[C@@H](Cc2ccc(O)cc2)NC(=O)[C@H](CC(=O)O)NC(=O)CNC(=O)[C@H](CCCNC(=N)N)NC1=O)C(C)C)C(N)=O [^68Ga-NOTA-RGD-BBN, metal not drawn]
cell uptake (plateau) (PC-3 tumor cells; 37° C., 15 min incubation): 1.69±0.29 % AD | T47D cell uptake value (T47D tumor cells): 2.42±0.23 % AD | tissue uptake at 1 h [1, 4]: 2.08 ± 0.65 %ID/g | tissue uptake at 0.5 h ([1]; PC-3 tumor uptake): 6.55 ± 0.83 %ID/g | tissue uptake at 1 h ([1]; PC-3 tumor uptake): 5.26 ± 0.32 %ID/g | tissue uptake at 2 h ([1]; PC-3 tumor uptake): 4.04 ± 0.28 %ID/g | tissue uptake at 5 min [1, 5]: 5.56 %ID/g | tissue uptake at 0.25 h [1, 5]: 6.68 %ID/g | tissue uptake at 0.5 h [1, 5]: 6.7 %ID/g | tissue uptake at 1 h [1, 6]: 4.47 %ID/g | tissue uptake at 2 h [1, 6]: 3.75 %ID/g | tissue uptake at 0.5 h ([1]; liver uptake (highest)): ~2 %ID/g | tissue uptake at 1 h [1, 7]: 1.61 ± 0.57 %ID/g | tissue uptake at 1 h [1, 8]: 0.42 ± 0.1 %ID/g | tissue uptake at 1 h ([2]; 3.7 MBq, MDA-MB435 tumor uptake): 3.23 ± 0.86 %ID/g | tissue uptake at 1 h ([2]; MDA-MB-435 tumor uptake): 2.24 ± 0.73 %ID/g | tissue uptake at 2 h ([2]; MDA-MB-435 tumor uptake): 1.84 ± 0.72 %ID/g | tissue uptake at 0.5 h [3]: 3.91 ± 1.13 %ID/g | tissue uptake at 1 h [3]: 2.78 ± 0.87 %ID/g | tissue uptake at 2 h [3]: 2.42 ± 0.29 %ID/g

CSCC[C@H](NC(=O)[C@H](CC(C)C)NC(=O)[C@H](Cc1c[nH]cn1)NC(=O)CNC(=O)[C@@H](NC(=O)[C@H](C)NC(=O)[C@H](Cc1c[nH]c2ccccc12)NC(=O)[C@H](CCC(N)=O)NC(=O)CCCCCNC(=O)CC[C@H](NC(=O)COCCOCCOCCNC(=O)c1ccc([18F])cc1)C(=O)NCCCC[C@@H]1NC(=O)[C@@H](Cc2ccc(O)cc2)NC(=O)[C@H](CC(=O)O)NC(=O)CNC(=O)[C@H](CCCNC(=N)N)NC1=O)C(C)C)C(N)=O [^18F-FB-PEG3-RGD-BBN]
inhibition of cell uptake by BBN (PC-3 tumor cells; 4° C., 60 min, blocking with Aca-BBN(7-14)): 83.67±2.09% | inhibition of cell uptake by RGD+BBN (PC-3 tumor cells; 4° C., 60 min, blocking with both peptides): 91.97±0.14% | inhibition of cell uptake by RGD (PC-3 tumor cells; 4° C., 60 min, blocking with c(RGDyK)): 17.55±8.89% | cell uptake (PC-3 tumor cells; 37° C., 15 min): 4.72±0.37% | cell uptake (PC-3 tumor cells; 37° C., 30 min): 5.51±0.11% | cell uptake (PC-3 tumor cells; 37° C., 60 min): 5.87±0.15% | cell uptake (PC-3 tumor cells; 37° C., 120 min): 6.65±0.34% | internalization (uptake at 37° C. minus uptake at 4° C.) (PC-3 tumor cells; within 30 min of incubation, plateaus afterwards): about 3.5% | T47D cell uptake value (T47D tumor cells): 4.25±0.13 % AD | tissue uptake at 1 h [1, 4]: 2.19 ± 0.97 %ID/g | tissue uptake at 0.5 h ([1]; PC-3 tumor uptake): 6.35 ± 2.52 %ID/g | tissue uptake at 1 h ([1]; PC-3 tumor uptake): 4.41 ± 0.71 %ID/g | tissue uptake at 2 h ([1]; PC-3 tumor uptake): 2.47 ± 0.81 %ID/g | tissue uptake at 5 min [1, 5]: 3.54 %ID/g | tissue uptake at 0.25 h [1, 5]: 4.86 %ID/g | tissue uptake at 0.5 h [1, 5]: 5.64 %ID/g | tissue uptake at 1 h [1, 6]: 4.08 %ID/g | tissue uptake at 2 h [1, 6]: 2.88 %ID/g | tissue uptake at 0.5 h ([1]; liver uptake (highest)): < 2 %ID/g | tissue uptake at 1 h [1, 7]: 1.58 ± 0.52 %ID/g | tissue uptake at 1 h [1, 8]: 0.43 ± 0.08 %ID/g | tissue to tissue ratio at 2 h ([1]; tumor/blood): 8.1 ± 1.14 | tissue to tissue ratio at 2 h ([1]; tumor/kidneys): 1.44 ± 0.05 | tissue to tissue ratio at 2 h ([1]; tumor/liver): 6.43 ± 0.81 | tissue to tissue ratio at 2 h ([1]; tumor/muscle): 10.5 ± 0.75 | tissue uptake at 0.5 h ([2]; MDA-MB-435 tumor uptake): 2.72 ± 0.8 %ID/g | tissue uptake at 1 h ([2]; MDA-MB-435 tumor uptake): 1.59 ± 0.65 %ID/g | tissue uptake at 2 h ([2]; MDA-MB-435 tumor uptake): 0.84 ± 0.22 %ID/g | tissue uptake at 0.5 h [3]: 2.96 ± 0.53 %ID/g | tissue uptake at 1 h [3]: 1.81 ± 0.34 %ID/g | tissue uptake at 2 h [3]: 0.91 ± 0.12 %ID/g
